The values that follow come from patent publication US20060074091A1, “Nootropic effect enhancer” (priority 2000, published 2006).

The experiment deals with Fischer male rats with Meynert's basal nuclei damage. Nature of the experiment: Passive avoidance learning test (mneme test) in rats with ibotenic acid injury of Meynert's basal nuclei. To be noted: 0.1 mg/kg. It is filed as in vivo, rat. Here is the method:
A solution prepared by dissolving ibotenic acid in physiological saline to have a concentration of 8 μg/μl was injected into the Meynert's basal nuclei of Fischer male rats (n=12 to 13, 11-weeks old when used in the experiment). One μl of the solution was injected thereinto over a period of 6 minutes, and then the rats were left as they were for 5 minutes to thereby make them have bilateral injury. Three weeks after the treatment, they were used in the experiment. Before the experiment, they were handled for 3 days. In the mneme test, the rats were first put into the light room of a passive avoidance learning test device, and the latent time taken before they entered the dark room was measured (acclimation trial). […] Then, the rats were made to receive electric shock (0.4 mA, 4 seconds) via the grid of the floor of the dark room (acquirement trial) 24 hours after the acquirement trial, the rats were again transferred into the light room, and the reaction latent time taken before the rats entered the dark room was measured up to at most 300 seconds (retention trial). […] The dose of each of the two substances was determined on the basis of the test results previously made for the efficacy of the single administration of each substance to the same models. […]

Regarding `COc1cc2c(cc1OC)C(=O)C(CC1CCN(Cc3ccccc3)CC1)C2.Cl` (centres unmarked) [E2020, Donepedil Hydrochloride], the “effect on reaction latent time in single administration (in words)” value was “ineffective”.

With `CC(=O)N1CCN(NC(=O)c2ccc(F)cc2)CC1` [FK960, N-(4-acetyl-1-piperazinyl)-p-fluorobenzamide Monohydrate], the “effect on reaction latent time in single administration (in words)” value was “ineffective”.
